SMILES strings stand for the structures.

Consider 23 compounds from patent US20260158009A1 (GENZYME CORPORATION, priority 2023, published 2026).

The target in experiment [1] is T1, hRIPK1 (aa 1-375) fusion protein (Homo sapiens, UniProt Q13546).
T1 construct: hRIPK1 (aa 1-375) fusion protein
T1 sequence (Q13546 1-375): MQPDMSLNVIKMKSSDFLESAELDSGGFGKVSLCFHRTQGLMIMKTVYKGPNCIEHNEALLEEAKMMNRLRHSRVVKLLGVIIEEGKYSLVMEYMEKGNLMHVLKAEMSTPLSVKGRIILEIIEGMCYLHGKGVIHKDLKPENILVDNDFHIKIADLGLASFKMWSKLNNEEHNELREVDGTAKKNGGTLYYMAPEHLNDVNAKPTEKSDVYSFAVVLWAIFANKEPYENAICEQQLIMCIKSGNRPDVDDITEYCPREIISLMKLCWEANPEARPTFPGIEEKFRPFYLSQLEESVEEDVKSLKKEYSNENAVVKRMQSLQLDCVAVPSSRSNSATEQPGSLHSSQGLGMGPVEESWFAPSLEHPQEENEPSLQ
The experiment in a line: ADP-Glo kinase assay: catalytic activity of RIPK1 (autophosphorylation, conversion of ATP to ADP). In kind it is biochemical. In short, it runs like this: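 hRIPK1 (aa 1-375) fusion protein (3.6 μg/ml final) was preincubated 30 min at rt with compound (33300-1.69 nM, 1% DMSO), then 50 μM ATP was added for 240 min at rt. ADP from autophosphorylation was measured by ADP-Glo luminescence and curves fitted by nonlinear regression.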
(In general: In ADP-Glo the light output rises with the ADP produced.)

The next experiment concerns U937 cells. The experiment in a line: Cellular assay in U937 cells: activity of RIPK1 inhibitors on TNFα/zVAD.fmk-induced cell death (necroptosis), CellTiter 96 AQueous (MTS) readout. The conditions noted are these: Homo sapiens, U-937. In kind it is cell-based. In a few lines:
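Necroptosis was measured by viable-cell MTS reduction (4 h, absorbance 490 nm) after overnight (18–24 h) 37° C culture. Cell suspensions of U937 cells carried TNFα (100 ng/ml) plus zVAD.fmk (50 μM) before compound was added. A 10-point curve (10 μM–0.26 nM or 1 μM–0.07 nM) was run in duplicate, normalised to the control lacking TNFα/zVAD.fmk.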

For orientation: IC50 means the concentration that inhibits the measured activity by half. A lower IC50 goes with greater potency. Take `COc1cc(C[C@H]2CC[C@H](C(=O)N3OCC[C@H]3c3cnc(C)c(F)c3)CC2)cn2nc(C)nc12` [compound 342, trans-[(3S)-3-(5-fluoro-6-methylpyridin-3-yl)-1,2-oxazolidin-2-yl]-[4-[(8-methoxy-2-methyl-[1,2,4]triazolo[1,5-a]pyridin-6-yl)methyl]cyclohexyl]methanone]: the figures for the 50% inhibitory concentration (IC50) (in experiment [1]; with U937 cells) were 0.026 µM and 0.008 µM, respectively.

For `Cc1nc([C@@H]2CCON2C(=O)[C@H]2CC[C@H](Cc3cc(F)c4nnc(C)n4c3)CC2)cs1` [compound 363, trans-[4-(8-Fluoro-3-methyl-[1,2,4]triazolo[4,3-a]pyridin-6-ylmethyl)-cyclohexyl]-[(S)-3-(2-methyl-thiazol-4-yl)-isoxazolidin-2-yl]-methanone], the IC50 in experiment [1] was found to be 0.18 µM; with U937 cells, 0.222 µM.

`Cc1nn(C[C@H]2CC[C@H](C(=O)N3OCC[C@H]3c3cc(F)cc(F)c3)CC2)c2cc(C#N)cc(F)c12` [compound 101, trans-1-((4-((S)-3-(3,5-difluorophenyl)isoxazolidine-2-carbonyl)cyclohexyl)methyl)-4-fluoro-3-methyl-1H-indazole-6-carbonitrile]: the IC50 turned out to be 0.018 µM in experiment [1] and 0.004 µM with U937 cells.

In the case of `N#Cc1cc(F)cc([C@@H]2CCON2C(=O)[C@H]2CC[C@H](Cc3ccc4c(c3)C(=O)NC4)CC2)c1` [compound 144, trans-3-fluoro-5-[(3S)-2-[4-[(3-oxoisoindolin-5-yl)methyl]cyclohexanecarbonyl]isoxazolidin-3-yl]benzonitrile], the IC50 was determined as 0.022 µM in experiment [1] and 0.003 µM with U937 cells.

Regarding `O=C([C@H]1CC[C@H](Cn2ccc3ncc(Cl)cc32)CC1)N1OCC[C@H]1c1cc(F)cc(F)c1` [compound 21, trans-(4-((6-chloro-1H-pyrrolo[3,2-b]pyridin-1-yl)methyl)cyclohexyl)((S)-3-(3,5-difluorophenyl)isoxazolidin-2-yl)methanone], the half-maximal inhibitory concentration (IC50) in experiment [1] was found to be 0.025 µM; in the experiment with U937 cells it was 0.005 µM.

Regarding `CNC(=O)c1cc(F)cc(C[C@H]2CC[C@H](C(=O)N3OCC[C@H]3c3cc(F)cc(F)c3)CC2)c1` [compound 161, trans-3-[[4-[(3S)-3-(3,5-difluorophenyl)isoxazolidine-2-carbonyl]cyclohexyl]methyl]-5-fluoro-N-methyl-benzamide], the IC50 came out at 0.004 µM in experiment [1] and 0.001 µM in the experiment on U937 cells.

Consider `Cn1nccc1-c1cc(F)cc(C[C@H]2CC[C@H](C(=O)N3OCC[C@H]3c3cnccn3)CC2)c1` [compound 211, trans-[4-[[3-fluoro-5-(2-methylpyrazol-3-yl)phenyl]methyl]cyclohexyl]-[(3S)-3-pyrazin-2-ylisoxazolidin-2-yl]methanone], for which the IC50 in experiment [1] turned out to be 0.018 µM; in the experiment with U937 cells, 0.02 µM.

In the case of `Cc1nc([C@@H]2CCON2C(=O)[C@H]2CC[C@H](Cn3ccc4cc(C(N)=O)ccc43)CC2)cs1` [compound 254, trans-1-[[4-[(3S)-3-(2-methylthiazol-4-yl)isoxazolidine-2-carbonyl]cyclohexyl]methyl]indole-5-carboxamide], the concentration for half-maximal inhibition (IC50) in experiment [1] was found to be 0.02 µM; in the experiment on U937 cells, 0.096 µM.

`Cc1nc2c(F)cc(C[C@H]3CC[C@H](C(=O)N4OCC[C@H]4c4cnc(C)c(F)c4)CC3)cn2n1` [compound 327, trans-[(3S)-3-(5-fluoro-6-methyl-3-pyridyl)isoxazolidin-2-yl]-[4-[(8-fluoro-2-methyl-[1,2,4]triazolo[1,5-a]pyridin-6-yl)methyl]cyclohexyl]methanone]: the IC50 (in experiment [1]; in the experiment with U937 cells) was 0.048 µM throughout.

With `Cc1cnc([C@@H]2CCON2C(=O)[C@H]2CC[C@H](Cc3cc(F)cnc3C)CC2)cn1` [compound 316, trans-[4-[(5-fluoro-2-methyl-3-pyridyl)methyl]cyclohexyl]-[(3S)-3-(5-methylpyrazin-2-yl)isoxazolidin-2-yl]methanone], the concentration for half-maximal inhibition (IC50) is 0.031 µM in experiment [1] and 0.027 µM in the experiment on U937 cells.

Consider `Cc1nc([C@@H]2CCON2C(=O)[C@H]2CC[C@H](Cc3ccc4nnc(C)n4c3C)CC2)cs1` [compound 375, [4-(3,5-Dimethyl-[1,2,4]triazolo[4,3-a]pyridin-6-ylmethyl)-cyclohexyl]-[(S)-3-(2-methyl-thiazol-4-yl)-isoxazolidin-2-yl]-methanone], for which the IC50 turned out to be 0.063 µM in experiment [1] and 0.01 µM in the experiment with U937 cells.

For the compound `N#Cc1cc(F)cc([C@@H]2CCON2C(=O)[C@H]2CC[C@H](Cn3cnc4cc(F)c(C#N)cc43)CC2)c1` [compound 13, trans-1-((4-((S)-3-(3-cyano-5-fluorophenyl)isoxazolidine-2-carbonyl)cyclohexyl)methyl)-5-fluoro-1H-benzo[d]imidazole-6-carbonitrile], the IC50 in experiment [1] was determined as 0.033 µM; with U937 cells it was 0.005 µM.

On to `Cc1cn2nc(C[C@H]3CC[C@H](C(=O)N4OCC[C@H]4c4cc(F)cc(C#N)c4)CC3)cc(C)c2n1` [compound 290, trans-3-[(3S)-2-[4-[(2,8-dimethylimidazo[1,2-b]pyridazin-6-yl)methyl]cyclohexanecarbonyl]isoxazolidin-3-yl]-5-fluoro-benzonitrile], for which the 50% inhibitory concentration (IC50) in experiment [1] turned out to be 0.011 µM; in the experiment on U937 cells it was 0.004 µM.

For `N#Cc1cc(F)cc([C@@H]2CCON2C(=O)[C@H]2CC[C@H](Cn3ccc4ccc(C(N)=O)cc43)CC2)c1` [compound 104, trans-1-((4-((S)-3-(3-cyano-5-fluorophenyl)isoxazolidine-2-carbonyl)cyclohexyl)methyl)-1H-indole-6-carboxamide], the 50% inhibitory concentration (IC50) in experiment [1] stood at 0.018 µM; in the experiment with U937 cells, 0.005 µM.

As to `Cc1ncc(C[C@H]2CC[C@H](C(=O)N3OCC[C@H]3c3cc(F)cc(F)c3)CC2)cn1` [compound 264, trans-[(3S)-3-(3,5-difluorophenyl)isoxazolidin-2-yl]-[4-[(2-methylpyrimidin-5-yl)methyl]cyclohexyl]methanone], the IC50 is 0.014 µM in experiment [1] and 0.016 µM in the experiment with U937 cells.

With `Cc1ccc(C[C@H]2CC[C@H](C(=O)N3OCC[C@H]3c3cncc(C#N)c3)CC2)cc1C(N)=O` [compound 158, trans-5-[[4-[(3S)-3-(5-cyano-3-pyridyl)isoxazolidine-2-carbonyl]cyclohexyl]methyl]-2-methyl-benzamide], the concentration for half-maximal inhibition (IC50) in experiment [1] was 0.009 µM; with U937 cells it was 0.033 µM.

For `Cc1nn(C[C@H]2CC[C@H](C(=O)N3OCC[C@H]3c3cc(F)cc(F)c3)CC2)c2cc(F)c(C#N)cc12` [compound 68, trans-1-((4-((S)-3-(3,5-difluorophenyl)isoxazolidine-2-carbonyl)cyclohexyl)methyl)-6-fluoro-3-methyl-1H-indazole-5-carbonitrile], the concentration for half-maximal inhibition (IC50) in experiment [1] amounted to 0.025 µM; with U937 cells, 0.002 µM.

As to `Cc1ccc(C[C@H]2CC[C@H](C(=O)N3OCC[C@H]3c3cc(F)cc(C#N)c3)CC2)cc1C#N` [compound 109, trans-5-((4-((S)-3-(3-cyano-5-fluorophenyl)isoxazolidine-2-carbonyl)cyclohexyl)methyl)-2-methylbenzonitrile], the IC50 in experiment [1] was determined as 0.019 µM; with U937 cells it was 0.001 µM.

Regarding `Cc1ccc([C@@H]2CCON2C(=O)[C@H]2CC[C@H](Cc3cnc(C)nc3)CC2)cn1` [compound 344, trans-[(3S)-3-(6-methylpyridin-3-yl)-1,2-oxazolidin-2-yl]-[4-[(2-methylpyrimidin-5-yl)methyl]cyclohexyl]methanone], the IC50 turned out to be 0.243 µM in experiment [1] and 0.173 µM in the experiment with U937 cells.

As to `Cc1nc2c(C)cc(C[C@H]3CC[C@H](C(=O)N4OCC[C@H]4c4cnc(C)c(F)c4)CC3)cn2n1` [compound 330, trans-[4-[(2,8-dimethyl-[1,2,4]triazolo[1,5-a]pyridin-6-yl)methyl]cyclohexyl]-[(3S)-3-(5-fluoro-6-methylpyridin-3-yl)-1,2-oxazolidin-2-yl]methanone], the figures for the half-inhibitory concentration (IC50) (in experiment [1]; with U937 cells) were 0.02 µM and 0.018 µM, respectively.

As to `NC(=O)c1ccc2cn(C[C@H]3CC[C@H](C(=O)N4OCC[C@H]4c4cnccn4)CC3)nc2c1` [Compound 228, trans-2-[[4-[(3S)-3-pyrazin-2-ylisoxazolidine-2-carbonyl]cyclohexyl]methyl]indazole-6-carboxamide], the IC50 turned out to be 0.065 µM in experiment [1] and 0.191 µM with U937 cells.

On to `CNC(=O)c1cc(F)cc(C[C@H]2CC[C@H](C(=O)N3OCC[C@H]3c3cc(F)cc(C#N)c3)CC2)c1` [compound 164, trans-3-[[4-[(3S)-3-(3-cyano-5-fluoro-phenyl)isoxazolidine-2-carbonyl]cyclohexyl]methyl]-5-fluoro-N-methyl-benzamide], for which the values for the IC50 (in experiment [1]; with U937 cells) were 0.005 µM and 0.007 µM, respectively.

For `O=C1NCc2ccc(C[C@H]3CC[C@H](C(=O)N4OCC[C@H]4c4cncc(F)c4)CC3)cc21` [compound 155, trans-6-[[4-[(3S)-3-(5-fluoro-3-pyridyl)isoxazolidine-2-carbonyl]cyclohexyl]methyl]isoindolin-1-one], the IC50 was found to be 0.015 µM in experiment [1] and 0.019 µM in the experiment with U937 cells.
